PMC10178204, “Peptaibol Analogs Show Potent Antibacterial Activity against Multidrug Resistant Opportunistic Pathogens” (International Journal of Molecular Sciences, 2023)
Converted amounts (≈) assume the structure as drawn. “And” between values parts separate entries of the source, which are not always exact repeats. Equal entries are not always repeated. Where two headings read alike, the source gives them in different places. Non-standard residues stand in square brackets, D forms with d. Residues, ends and D or L forms follow the SMILES beside them. *: point of attachment. Leu(ol) = CC(C)C[C@H](N)CO; Octanoyl = CCCCCCCC(=O)*; Aib = CC(C)(N)C(=O)O

How the values were obtained:
[1] = system: S. aureus ATCC 43300 (MRSA); conditions: MHB, 5 × 10^5 CFU/mL, 18 h, 35 °C, triplicate
Protocol: (§1) The minimum inhibitory concentration (MIC) and the minimum bactericidal concentration (MBC) of the compounds were determined in triplicate using Mueller–Hinton broth (MHB). […] Therefore, we decided to dissolve all peptides in DMSO to a final concentration of 25 mg/mL, for consistency. The bacteria inoculum was 5 × 10^5 CFU/mL, as recommended by CLSI (Document M07-A10, 2015). […] Reference-type strains, including representatives of both Gram-positive bacteria (Bacillus subtilis ATCC 6633, Enterococcus faecalis ATCC 29212, Staphylococcus aureus ATCC 25923, the methicillin-resistant Staphylococcus aureus ATCC 43300 (MRSA), Streptococcus pyogenes ATCC 12344) and Gram-negative bacteria (Escherichia coli CCUGT, Klebsiella pneumoniae ATCC 13833, Pseudomonas aeruginosa ATCC 27853, and Acinetobacter baumannii ATCC 17978), were acquired from ATCC or CCUG culture collections. Other antibiotic-resistant clinical isolates were present in our collection at the University Teaching Hospital (Azienda Ospedaliero-Universitaria Senese ‘Santa Maria alle Scotte’) in Siena, Tuscany, Italy. Specifically, MDR carbapenem-hydrolyzing class D β-lactamase-producing Acinetobacter baumannii and metallo-β-lactamase-producing Pseudomonas aeruginosa were used in this study (Table 4).

[2] = system: blood agar plate (Columbia CNA Agar); assay: Hemolysis on blood agar plate; conditions: 35 ± 2 °C, 24 h; for Hemolysis (class): 50 μg peptide (2 μL of 25 mg/mL in DMSO) spotted on blood agar, visual, triplicate; for Hemolysis (d, diameter of hemolysis zone): 50 μg spotted on blood agar, average of triplicate
Protocol: Hemolysis zones were visually determined and measured. […] For two additional peptides (6 and 15), only a small hemolysis zone (diameter 4–5 mm) was visible, as compared to that of the positive control (Triton X-100, 13 mm).
Briefly, 2 μL of each peptide solution in DMSO (25 mg/mL), corresponding to 50 μg, was spotted on the surface of a blood agar plate (Columbia CNA Agar, Becton Dickinson Italia S.p.A., Florence, Italy). The plate was then incubated at 35 ± 2 °C for 24 h and visually inspected for the presence of hemolysis zones (see Figure S13, Supplementary Material). The experiment was performed in triplicate. Table 2 reports the average value of the diameter of hemolysis zones measured in each individual experiment. Triton X-100 was used as a positive control (diameter of the hemolysis zone: 13 mm), while DMSO was used as a negative control.
Figure S13. Implementation of the hemolysis test as described in Bechlars et al.. After spotting
2 µL (50 µg) of each compound at a random location on the blood agar plate and incubation at 35 ±
2 °C for 24 h, the plates were manually inspected for the presence of hemolysis zones. Triton X-100
and DMSO were used as the positive and negative controls, respectively. Results were interpreted
(1 picture or pasted object on this page, not shown here)

[3] = system: Enterococcus faecalis ATCC 29212
Excerpt: (§2) The antibacterial activity of the peptides was initially assessed on a panel of representative Gram-positive and Gram-negative organisms of high clinical relevance and commonly responsible for bacterial infections in both animals and humans. Bacillus subtilis ATCC 6633 (Bsu) was also included as a rod-shaped model Gram-positive organism. This first panel comprised: Enterococcus faecalis ATCC 29212 (Efa); Streptococcus pyogenes ATCC 12344 (Spy); and Staphylococcus aureus ATCC 25923 (Sau); Gram-negative: Escherichia coli CCUGT (Eco), Klebsiella pneumoniae ATCC 13833 (Kpn), Acinetobacter baumannii ATCC 17978 (Aba), and Pseudomonas aeruginosa ATCC 27853 (Pae) (Table 2). Both the minimum inhibitory concentration (MIC, Table 2) and the minimum bactericidal concentration (MBC, Table S1, Supporting Material) were determined.
as §1

[4] = system: Bacillus subtilis ATCC 6633
Excerpt: as §2, §1

Escherichia coli CCUGT = conditions: 18 h; for MIC Eco: MHB, 5 × 10^5 CFU/mL, 35 °C, triplicate
Excerpt: as §2, §1

[5] = system: Streptococcus pyogenes ATCC 12344
Excerpt: as §2, §1

[6] = system: Staphylococcus aureus ATCC 25923
Excerpt: as §2, §1

[7] = system: Acinetobacter baumannii ATCC 17978
Excerpt: as §2, §1

[8] = system: Klebsiella pneumoniae ATCC 13833; conditions: for MIC Kpn: MHB, 5 × 10^5 CFU/mL, 18 h, 35 °C, triplicate
Excerpt: as §2, §1

[9] = system: Pseudomonas aeruginosa ATCC 27853; conditions: for MIC Pae: MHB, 5 × 10^5 CFU/mL, 18 h, 35 °C, triplicate
Excerpt: as §2, §1

[10] = system: P. aeruginosa VA-182/00 (VIM-2); conditions: MHB, 5 × 10^5 CFU/mL, 18 h, 35 °C, triplicate
Protocol: as §1

[11] = system: A. baumannii SI-12 (OXA-23); conditions: MHB, 5 × 10^5 CFU/mL, 18 h, 35 °C, triplicate
Protocol: as §1

[12] = system: A. baumannii SI-310 (OXA-24); conditions: colistin-resistant isolate; MHB, 5 × 10^5 CFU/mL, 18 h, 35 °C, triplicate
Protocol: as §1

[13] = system: P. aeruginosa VR-143/97 (VIM-1); conditions: MHB, 5 × 10^5 CFU/mL, 18 h, 35 °C, triplicate
Protocol: as §1

[14] = system: P. aeruginosa 506/99 (VIM-2); conditions: MHB, 5 × 10^5 CFU/mL, 18 h, 35 °C, triplicate
Protocol: as §1

[15] = system: P. aeruginosa 101/1477 (IMP-1); conditions: MHB, 5 × 10^5 CFU/mL, 18 h, 35 °C, triplicate
Protocol: as §1

[16] = system: A. baumannii SI-648 (OXA-23, OXA-51-like); conditions: MHB, 5 × 10^5 CFU/mL, 18 h, 35 °C, triplicate
Protocol: as §1

[17] = MHB, 5 × 10^5 CFU/mL, 18 h, 35 °C, triplicate

Structure (SMILES) | MBC S. aureus ATCC 43300 (MRSA) [1] [µg/mL] | MIC S. aureus ATCC 43300 (MRSA) [1] [µg/mL] | Hemolysis (class) [2] | Hemolysis (d, diameter of hemolysis zone) [2] [mm] | MBC Efa [3, 17] [µg/mL] | MIC Efa [3, 17] [µg/mL] | MBC Bsu [4, 17] [µg/mL] | MIC Bsu [4, 17] [µg/mL] | MIC Eco (Escherichia coli CCUGT) [µg/mL] | MBC Spy [5, 17] [µg/mL] | MIC Spy [5, 17] [µg/mL] | MBC Sau [6, 17] [µg/mL] | MIC Sau [6, 17] [µg/mL] | MIC Aba [7, 17] [µg/mL] | MIC Kpn [8] [µg/mL] | MIC Pae [9] [µg/mL] | other results
CCCCCCCC(=O)NC(C)(C)C(=O)NCC(=O)N[C@@H](CC(C)C)C(=O)NC(C)(C)C(=O)N[C@@H](CCCCN)C(=O)NC(C)(C)C(=O)N[C@@H](CC(C)C)C(=O)NC(C)(C)C(=O)NCC(=O)N[C@H](C(=O)N[C@H](CO)CC(C)C)[C@@H](C)CC [Peptide 6, 1-Oct-Aib-Gly-Leu-Aib-Lys-Aib-Leu-Aib-Gly-Ile-Lol] (Octanoyl-[Aib]GL[Aib]K[Aib]L[Aib]GI[Leu(ol)]) | 8 (≈ 6.86 µM) | 4 (≈ 3.43 µM) | + | 4 | 8 (≈ 6.86 µM) | 8 (≈ 6.86 µM) | 16 (≈ 13.7 µM) | 8 (≈ 6.86 µM) | > 128 | 8 (≈ 6.86 µM) | 8 (≈ 6.86 µM) | 16 (≈ 13.7 µM) | 8 (≈ 6.86 µM) | > 128 | > 128 | > 128 | 
CCCCCCCC(=O)NC(C)(C)C(=O)NCC(=O)N[C@@H](CC(C)C)C(=O)NC(C)(C)C(=O)NCC(=O)NCC(=O)N[C@@H](CC(C)C)C(=O)NC(C)(C)C(=O)N[C@@H](CCCCN)C(=O)N[C@H](C(=O)N[C@H](CO)CC(C)C)[C@@H](C)CC [Peptide 9, 1-Oct-Aib-Gly-Leu-Aib-Gly-Gly-Leu-Aib-Lys-Ile-Lol] (Octanoyl-[Aib]GL[Aib]GGL[Aib]KI[Leu(ol)]) | 8 (≈ 7.03 µM) | 4 (≈ 3.52 µM) | + | 10 | 4 (≈ 3.52 µM) | 4 (≈ 3.52 µM) | 16 (≈ 14.1 µM) | 4 (≈ 3.52 µM) | > 128 | 32 (≈ 28.1 µM) | 16 (≈ 14.1 µM) | 16 (≈ 14.1 µM) | 16 (≈ 14.1 µM) |  | > 128 | > 128 | MIC P. aeruginosa VA-182/00 (VIM-2) [10]: > 128 µg/mL; MBC A. baumannii SI-12 (OXA-23) [11]: 32 µg/mL (≈ 28.1 µM); MIC A. baumannii SI-12 (OXA-23) [11]: 32 μg/mL and 32/32 μg/mL; MBC A. baumannii SI-310 (OXA-24) [12]: 32 µg/mL (≈ 28.1 µM); MIC A. baumannii SI-310 (OXA-24) [12]: 32 μg/mL and 32/32 μg/mL; MIC P. aeruginosa VR-143/97 (VIM-1) [13]: > 128 µg/mL; MIC P. aeruginosa 506/99 (VIM-2) [14]: > 128 µg/mL; MIC P. aeruginosa 101/1477 (IMP-1) [15]: > 128 µg/mL; MBC A. baumannii SI-648 (OXA-23, OXA-51-like) [16]: 32 µg/mL (≈ 28.1 µM); MIC A. baumannii SI-648 (OXA-23, OXA-51-like) [16]: 32 μg/mL and 32/32 μg/mL; MBC Aba [7, 17]: 8 µg/mL (≈ 7.03 µM); MIC against A. baumannii, in molar units ([7]; corresponding to 2 and 8 μg/mL): 1.8 to 7.2 µM
CCCCCCCC(=O)NC(C)(C)C(=O)N[C@@H](CCCCN)C(=O)N[C@@H](CC(C)C)C(=O)N[C@@H](CC(C)C)C(N)=O [Peptide 15, 1-Oct-Aib-Lys-Leu-Leu-NH2] (Octanoyl-[Aib]KLL-NH2) |  |  |  | 5 |  | 32 (≈ 54.9 µM) |  | 16 (≈ 27.5 µM) | 64 (≈ 110 µM) |  | 16 (≈ 27.5 µM) |  | 64 (≈ 110 µM) | 64 (≈ 110 µM) | 64 (≈ 110 µM) | 64 (≈ 110 µM) | MBC Efa ([3]; ATCC 29212, 18 h): 32 µg/mL (≈ 54.9 µM); MBC Bsu ([4]; ATCC 6633, 18 h): 32 µg/mL (≈ 54.9 µM); MBC Eco (Escherichia coli CCUGT; CCUGT): > 128 µg/mL; MBC Spy ([5]; ATCC 12344, 18 h): 16 µg/mL (≈ 27.5 µM); MBC Sau ([6]; ATCC 25923, 18 h): > 128 µg/mL; MBC Aba ([7]; ATCC 17978, 18 h): 128 µg/mL (≈ 220 µM); MBC Kpn ([8]; ATCC 13833, 18 h): > 128 µg/mL; MBC Pae ([9]; ATCC 27853, 18 h): > 128 µg/mL
